Measured values as given in patent US9993554B2 (CENTRO NACIONAL DE INVESTIGACIONES ONCOLOGICAS (CNIO), priority 2010, dated 2018).

Assays:
[1] = tested on: phospho-Ser-473-Akt; test: AKT phosphorylation inhibition, Western blot cell assay; type: cell-based; conditions: Homo sapiens; read-out: IC50, cell assay (p-AKT Western Blot)
Description: The cell lines were obtained from the American Type Culture Collection (ATCC). U2OS (human osteosarcoma) was cultured in Dulbecco's modified Eagle's medium (DMEM). PC3 (human prostate carcinoma), MCF7 (human breast cardinoma), HCT116 (human colon carcinoma), 768-0 (human neuroblastoma), U251 (human glyoblastoma) were grown in RPMI. All media were supplemented with 10% fetal bovine serum (FBS) (Sigma) and antibiotics-antimycotics. Cell were maintained in a humidified incubator at 37° C. with 5% CO2 and passaged when confluent using trypsin/EDTA.
Subconfluent cells were incubated under different conditions and washed twice with TBS prior to lysis. Lysis buffer was added containing 50 mM Tris HCl, 150 mM NaCl, 1% NP-40, 2 mM Na3VO4, 100 mM NaF, 20 mM Na4P2O7 and protease inhibitor cocktail (Roche Molecular Biochemicals). The proteins were resolved on 10% SDS-PAGE and transferred to nitrocellulose membrane (Schleicher & Schuell, Dassel, Germany). The membranes were incubated overnight at 4° C. with antibodies specific for Akt, phospho-Ser-473-Akt (Cell Signaling Technology) and α-tubulin (Sigma), they were washed and then incubated with IRDye800 conjugated anti-mouse and Alexa Fluor 680 goat anti-rabbit IgG secondary antibodies. The bands were visualized using an Odyssey infrared imaging system (Li-Cor Biosciences).

[2] = tested on: obese mice under high-fat diet; test: Body weight and food intake of obese mice under high-fat diet; type: in vivo; conditions: 10 mg/kg, ad libitum high-fat food
Description: Obese mice under long-term high-fat (HFD) were dosed with Compound A or with the indicated PI3KI by gavage once per day, during 2 weeks, resting the intervening week-end, and always with ad libitum access to HFD. During the two weeks of treatment, it was scored the amount of food intake (upper left panel) and the change in body weight relative to the initiation of the treatment (upper right panel). The final relative change in body weight is also represented (lower panel). The weight of non-obese littermates (always fed with standard diet, SD) is marked for reference.
(§1) Mice were fed either with a standard chow diet (Harlan Teklad 2018, 18% calories from fat) or, when indicated, with a high fat diet (Research Diets D12451, 45% of total calories from fat). To measure food intake, mice were housed in metabolic cages during 5 days, and food and water intake, as well as, the output of faeces and urine were measured during the last 4 days. Body composition (fat and lean content) was determined by Dual energy X-ray Absorptiometry (DXA) (Lunar PIXImus Densitometer, GE Medical Systems). Image acquisition lasted 5 minutes with mice under anesthesia by inhalation of 2% isofluorane in 100% oxygen. The analysis of lean mass and fat mass was performed using a Region Of Interest (ROI) comprising the entire body. […]

[3] = tested on: 282 additional kinases including mTOR and DNAPK; test: Inhibition of additional kinases (panel); type: biochemical
[4] = tested on: brown adipose tissue (BAT) of C57BL6 mice; test: In vivo inhibition of PI3K: mRNA levels in BAT; conditions: 15 mg/kg by gavage, 6 h, C57BL6 males
Description: For in vitro assays Compound A was added at a concentration of 1 μM. For in vivo assays, Compound A″ was administered orally by gavage at a dose of 15 mg/kg. Mice were sacrificed 6 h after and tissues were extracted and analyzed. Treated mice were C57BL6 males, 3 months old.
Total RNA from tissues or fibroblasts was extracted using TRIZOL (Invitrogen). Reverse transcription was performed using random primers and Ready-To-Go™ You-Prime First-Strand Beads (GE Healthcare). Quantitative real time-PCR was performed using DNA Master Sybr Green I mix (Applied Biosystems) in an ABI PRISM 7700 thermocycler (Applied Biosystem). Primer sequences are described in Supp.

[5] = tested on: obese mice under high-fat diet; test: Adiposity by dual X-ray absorptiometry (DXA) in treated obese mice; type: in vivo; conditions: 2 weeks treatment
Description: Mice treated as in FIG. 22 were subjected to dual X-ray absorptiometry (DXA) to determine their relative content of fat and lean tissues (the head and the bone mass is not measured). Determinations were performed one week before starting the treatment (day −7 or D−7), in the middle of the 2 weeks treatment (day 7 or D7, and at the end of the treatment (day 14 or D14). The content of fat is expressed as the percentage of fat relative to the combined fat and lean mass (upper panel). The absolute lean mass is also shown (lower panel). The two panels include data from the assay shown in FIG. 22, as well as the data from our previous assay with Compound A at 15 mg/kg. The percentage of fat and the lean mass of non-obese littermates (always fed with standard diet, SD) is shown in orange for reference.
as §1, with “Systems).” for “Systems). Image acquisition lasted 5 minutes with mice under anesthesia by inhalation of 2% isofluorane in 100% oxygen. The analysis of lean mass and fat mass was performed using a Region Of Interest (ROI) comprising the entire body.”

SMILES: CS(=O)(=O)N1CCN(Cc2cn3c(Cl)c(-c4cnc(N)nc4)nc(N4CCOCC4)c3n2)CC1 [Compound A]
- IC50 [1]: 5 nM
- decrease of body weight ([2]; gavage once a day for 2 weeks): approx. 10%
- food intake ([2]; during treatment): did not change significantly
- IC50 [3]: < 1000 nM
- Lcad mRNA in the BAT [4]: significant upregulation
- Pgc1a mRNA in the BAT [4]: significant upregulation
- Ucp1 mRNA in the BAT [4]: significant upregulation
- fat mass (DXA) [5]: loss of fat mass
- lean mass (DXA) [5]: not to a loss of lean mass
